For the assay, the target named is T1, AioX (Pseudorhizobium banfieldiae, UniProt L0NML6).
T1 construct: 304 amino acid residues; His-tag removed; SeMet-labelled
T1 sequence (L0NML6 27-304): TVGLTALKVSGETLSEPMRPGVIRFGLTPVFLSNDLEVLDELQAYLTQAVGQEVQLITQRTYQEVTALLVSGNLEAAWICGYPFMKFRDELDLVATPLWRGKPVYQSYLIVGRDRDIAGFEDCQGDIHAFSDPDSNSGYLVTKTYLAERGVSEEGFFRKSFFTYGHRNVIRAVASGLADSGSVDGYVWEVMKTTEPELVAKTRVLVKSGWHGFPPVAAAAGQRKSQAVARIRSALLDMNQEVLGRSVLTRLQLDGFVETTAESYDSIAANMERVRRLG
Description: X-ray crystal structure ([…] Å; phosphate from the crystallisation conditions); no binding detected by ITC. A general note: Isothermal titration calorimetry measures the heat released or taken up as one component is titrated into another.

pKd: −log10 of the molar value. A value given as a limit tells only on which side of the number the result lay.

Regarding `O=P(O)(O)O` [phosphate], the pKd (in general, −log10 of the Kd, conventionally taken in molar units) was below 2.70.

Source of the values: PMC5908839 (Scientific Reports, 2018).
